Experimental data taken from publication PMC11562385 (RSC Chemical Biology, 2024).
Peptide text beside a SMILES is read from it.

Experiments:
[1] = Variable-temperature CD melting curves (CD-melts at 228±2 nm and 202±2 nm), individual and global two-state fits; assay type: physicochemical
Summary of the method: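 Far-UV CD melts (0 to 95 °C) at 15-120 µM peptide in 15 mM phosphate buffer, concentration set by Trp/Tyr absorbance at 280 nm; CD-exciton intensity taken as %-folding probe. Melting curves fitted individually and globally to a two-state model.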

N-deglycosylated PD1 = assay: SDS-PAGE analysis of covalent conjugation to N-deglycosylated PD1; assay type: biochemical; conditions: N-deglycosylated PD1, 12 h, 37 °C, pH 6.5, peptide/protein 4:1 to 16:1
[2] = molecular target: T1, cell surface PD1 on CD3+/CD8+ cells of h-PBMCs (Homo sapiens, UniProt Q15116); assay: In cellulo PD1 blockade on h-PBMCs by flow cytometry; assay type: cell-based; conditions: h-PBMC cultures, 30 h, n = 3
T1 construct: endogenous in cells; host or cells: healthy human PBMCs (CD45+, CD3+/CD8+ gated)
From the text: Then, an ex vivo immune cell culture system using h-PBMCs and exhausted PBMCs from a melanoma patient (e-PBMCs) was used to determine the efficacy of selected ADAPTin peptides on T-effector cells (Fig. 6).[91,92] T-cell exhaustion typically leads to a reduction in cytokine release, cytotoxic activity, as well as slower T-cell proliferation.

h-PBMCs = assay: Ex vivo cytokine secretion assay, healthy PBMCs; assay type: cell-based, human; conditions: h-PBMCs reactivated with anti-CD2/28, 6 h incubation, n = 3
Description: (§1) Then, an ex vivo immune cell culture system using h-PBMCs and exhausted PBMCs from a melanoma patient (e-PBMCs) was used to determine the efficacy of selected ADAPTin peptides on T-effector cells (Fig. 6).[91,92] T-cell exhaustion typically leads to a reduction in cytokine release, cytotoxic activity, as well as slower T-cell proliferation. […] Cytokines concentrations measured at 72 h post-treatment were in most cases over the detection limit range further indicating the effectiveness of our compounds over time.
(§2) Non-covalent ADAPTin2c/2p were used as negative control. (A) Levels of inflammatory cytokines measured by flow-cytometry (FACS) after 6 h incubation with electrophilic ADAPTins. Error bars indicate the mean ± SD, (n = 3). (B) Rescue of exhausted PBMCs from a melanoma patient. Levels of inflammatory cytokines and granule-associated proteins released (6 h) measured by FACS (healthy and untreated exhausted PBMCs: h-/e-PBMCs used as positive and negative controls respectively). Error bars indicate the avg ± SD, (n = 2).
(§3) Ex Vivo Cytokine Secretion Assay.
Normal PBMCs (from healthy donor) and exhausted PBMCs isolated from the blood sample of a melanoma patient were activated for 48 h before using anti-CD2/28 monoclonal antibodies with IL-2 (2 ng/mL) as mentioned above. […] Samples were transferred to a 96-well plate to read on a flow cytometer. […]

e-PBMCs = assay: Ex vivo cytokine secretion assay, exhausted PBMCs from a melanoma patient; assay type: cell-based, human; conditions: e-PBMC, 6 h, LEGENDplex
Description: as §1, §2, §3
Normal PBMCs (from healthy donor) and exhausted PBMCs isolated from the blood sample of a melanoma patient were activated for 48 h before using anti-CD2/28 monoclonal antibodies with IL-2 (2 ng/mL) as mentioned above. After 48 h, PBMCs were washed and incubated with a series of ADAPTins for 6 h. After treatment, media supernatant was collected for cytokine release measurements using the LEGENDplex™ human CD8/NK (13-plex) panel (BioLegend, cat no. 740267). Briefly, samples were mixed with assay buffer and human (13-plex) mixed-beads and plated on the 96-well filter plate. Samples were incubated for 2 h at room temperature, washed, and resuspended beads with detection antibodies according to manufacturer's protocol. Samples were transferred to a 96-well plate to read on a flow cytometer. The flow cytometer and data acquisition software setting were used according to the manufacturer's instructions. Flow analysis was obtained using a CytoFLEX-S flow cytometer equipped with 3 lasers (488 nm blue, 405 nm violet, and 638 nm from Beckman).
Table S9. Raw data of cytokine secretion assay (n=2).
Cytokine assay IL-2 TNF-α IFN-γ Perforin […]

PD1:PDL1 interaction = conditions: read-out: apparent Ki, PD1:PDL1 interaction; cited from earlier work
From the text: While downsizing a full antibody drug into a single CDR-H3 “hot loop”, one should anticipate a significant loss in binding affinity and specificity. […] The PD1 ...

[3] = xlsx sheet of the peptide, individual fit of CD-melt

T1 sequence (Q15116 25-288): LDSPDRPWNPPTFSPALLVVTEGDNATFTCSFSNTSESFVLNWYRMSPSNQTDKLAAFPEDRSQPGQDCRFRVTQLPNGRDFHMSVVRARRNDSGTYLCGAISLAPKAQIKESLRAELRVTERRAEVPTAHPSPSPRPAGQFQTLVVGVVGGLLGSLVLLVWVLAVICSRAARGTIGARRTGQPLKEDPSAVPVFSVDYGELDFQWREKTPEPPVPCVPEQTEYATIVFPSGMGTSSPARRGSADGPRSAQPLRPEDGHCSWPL

With `CSCC[C@H](NC(=O)[C@H](CC(=O)O)NC(=O)[C@H](Cc1ccccc1)NC(=O)[C@H](CCCNC(=N)N)NC(=O)[C@H](Cc1ccc(O)cc1)NC(=O)[C@H](CC(=O)O)NC(=O)[C@H](CCCNC(=N)N)NC(=O)[C@H](CCCNC(=N)N)NC(=O)[C@H](C)NC(=O)[C@@H](NC(=O)[C@H](Cc1c[nH]c2ccccc12)NC(=O)[C@@H](N)CCCNC(=N)N)C(C)C)C(=O)NCC(=O)N[C@@H](Cc1ccccc1)C(=O)N[C@@H](CC(=O)O)C(=O)N[C@@H](Cc1ccc(O)cc1)C(=O)N[C@@H](Cc1c[nH]c2ccccc12)C(=O)N[C@H](C(=O)N[C@@H](Cc1c[nH]c2ccccc12)C(=O)N[C@@H](CCC(=O)O)C(=O)O)C(C)C` [2c] (H-RWVARRDYRFDMGFDYWVWE-OH) the ΔGF0 ([1]; CD-melt at 228±2 nm, individual two-state Gibbs-Helmholtz fit (Origin 9.0), 0-95 °C, phosphate buffer 15 mM pH 6.5 ± MeOH) was -1.26 ± 0.01 kcal/mol, the “Hairpin %-fold 291K” value ([1]; Table S5, individual fit, 291 K) was 93 ± 1% and the “Hairpin %-fold 310K” value ([1]; Table S5, individual fit, 310 K) was 77 ± 1%. For the same compound, the “-TΔSF0” value ([1]; as E16) was 12.4 ± 0.2 kcal/mol, the ΔCpF0 ([1]; as E16) was -29 ± 7 cal.deg-1.mol-1 and the ΔHF0 ([1]; as E16) was -13.6 ± 0.2 kcal/mol. For the same compound, the VT-CD %-fold ([1]; folded fraction (χF) at 25 °C from CD-melts, (R) regular / (B) bulged fold, phosphate buffer 15 mM pH 6.5, up to 20% MeOH) was 93% (B), the “Tm 228 nm Glob.” value ([1]; global fit (shared maximum molar ellipticity), 228 nm) was 48.0 oC and the “Tm 202 nm Glob.” value ([1]; global fit, 202 nm) was 67.5 oC. The “χF (291 K) 202 nm Glob.” value ([1]; global fit, 202 nm, 291 K) was 97%, the “χF (291 K) 228 nm Glob.” value ([1]; global fit, 228 nm, 291 K) was 63% and the “χF (291 K) 202 nm Indiv.” value ([1]; individual fit, 202 nm, 291 K) was 73%. The “χF (291 K) 228 nm Indiv.” value ([1]; individual fit, 228 nm, 291 K) was 56%, the “Tm 228 nm Indiv.” value ([1]; individual fit, exciton band 228 nm) was 36.7 oC and the “Tm 202 nm Indiv.” value ([1]; individual fit, β-bulge band 202 nm) was 62.2 oC. For the same compound, the “VT-CD Tm (°C)” value ([1]; melting temperature from CD-melts, phosphate buffer 15 mM pH 6.5, up to 20% MeOH) was 54 °C, the “DHm, fitted value from OriginPro” value [1, 3] was -14.4955 kcal/mol and the “Tm, fitted value from OriginPro” value [1, 3] was 327.29 K. For the same compound, the “covalent conjugation to PD1 on SDS-PAGE (in words)” value (N-deglycosylated PD1) was “No conjugation observed”, the “PD1 blockade on CD3+/CD8+ T-effector cells” value [2] was less than 20% and the “increase in TNF-α, IFN-γ and perforin levels” value (h-PBMCs) was “no detectable activity”. For the same compound, the IFN-γ (e-PBMCs; replicate 1) was 4131.52 pg/mL, the IL-2 (e-PBMCs; replicate 1) was 0.44 pg/mL and the Perforin (e-PBMCs; replicate 1) was 217.39 pg/mL. The TNF-α (e-PBMCs; replicate 1) was 483.47 pg/mL, the IFN-γ (e-PBMCs; replicate 2) was 7535.05 pg/mL and the IL-2 (e-PBMCs; replicate 2) was 266.63 pg/mL. The Perforin (e-PBMCs; replicate 2) was 381.31 pg/mL, the TNF-α (e-PBMCs; replicate 2) was 1150.47 pg/mL and the Ki (PD1:PDL1 interaction) was 0.041 µM.
